The values that follow come from US8877758B2, “Combinations of medicaments, containing PDE4-inhibitors and EP4-receptor-antagonists” (Boehringer Ingelheim International GmbH, priority 2010, dated 2014).

Molecules are shown by their SMILES. Entries after “also recorded” stand apart in the source; their conditions may differ.

Data set [1] relates to male Wistar rats. The experiment in a line: Experiment 4: four-day oral treatment of rats, roflumilast-mediated effects with or without AH-6809. Type of data set: in vivo, rat. The method, then: group 2 (“AH-6809 group”): Six male Wistar rats were given a daily dosage of 10 mg/kg AH-6809 (preferential EP2 antagonist) at 1300 hours.
In data set [2] the test system is male Wistar rats. Kind of data set: Experiment 1: four-day oral treatment of rats, roflumilast-mediated effects with or without diclofenac.
Experimental: Six male Wistar rats in each group were treated for four days with the following substances (all substances are given p.o.=orally):
Group 1 (“control group”): Six male Wistar rats were given a daily dose of 0.5% Natrosol (placebo) at the times 0800, 1300 and 1700 hours.
Group 2 (“diclofenac group”): Six male Wistar rats were given a daily dose of 1 mg/kg of diclofenac (NSAID) at the times 0800 and 1700 hours and 0.5% Natrosol (placebo) at 1300 hours.
Group 3 (“roflumilast group”): Six male Wistar rats were given a daily dose of 0.5% Natrosol (placebo) at 0800 and 1700 hours and 10 mg/kg roflumilast (PDE4 inhibitor) at 1300 hours.
Group 4 (“roflumilast+diclofenac group”): Six male Wistar rats were given a daily dose of 1 mg/kg diclofenac (NSAID) at the times 0800 and 1700 hours and 10 mg/kg roflumilast (PDE4 inhibitor) at 1300 hours.
For pharmacokinetic analysis (determining the plasma levels of the substances) on day 4 one rat from each group was used; these rats were no longer available for other parameters under investigation.
During the experiment the body weights of the animals were determined and the differences in the body weights of the rats from the different groups towards the end of the experiment were shown as a percentage change from the time of the first administration (=day 1, 0800 hours (=time t0)). The average±standard deviation of the body weights at time t0 was 355±17 g.
At the end of the experiment (day 5, 95 hours after t0 (t0=the time of the first administration on day 1, 0800)) the proportion of neutrophils (in % of white blood cells, FIG. 2) were determined from the blood of 4 or 5 of the rats from the individual groups. In addition, the weights of the animals' spleens were measured and the mesenteries were dissected for histopathological investigation for vasculitis (multifocal perivascular mononuclear/polymorphonuclear infiltration).
The test system of data set [3] is male Wistar rats. Kind of data set: Experiment 2: four-day oral treatment of rats, roflumilast-mediated effects with or without SC-560 or Lumiracoxib. Type of data set: in vivo, rat. From the text: For pharmacokinetic analysis (determining plasma levels of the substances) one rat from each group was used on day 4; these rats were no longer available for the investigation of other parameters.

The test system of data set [4] is male Wistar rats. Kind of data set: Experiment 3: four-day oral treatment of rats, roflumilast-mediated effects with or without MF-498. The format is in vivo, rat.
Data set [5] has as its system male Wistar rats. The description is as above. The format is in vivo, rat. Conditions: 20 mg/kg MF-498 p.o. at 1300 hours, four days, no roflumilast. The method, then: group 2 (“MF-498 group”): Six male Wistar rats were given a daily dosage of 20 mg/kg MF-498 (EP4 antagonist) in each case at 1300 hours.
[6] abbreviates: 10 mg/kg Roflumilast p.o. at 1300 hours for four days, read-out day 5, 95 hours after t0.
Where [7] appears, read: 20 mg/kg MF-498 and 10 mg/kg Roflumilast p.o. at 1300 hours, four days.
[8] abbreviates: 1 mg/kg diclofenac p.o. at 0800 and 1700 hours + 10 mg/kg roflumilast at 1300 hours, four days.
Where [9] appears, read: AH-6809 and 10 mg/kg Roflumilast p.o. at 1300 hours, four days.
Where [10] appears, read: 2 mg/kg p.o. at 0800 and 1700 hours + 10 mg/kg Roflumilast at 1300 hours, four days.

Consider `O=C(Nc1c(Cl)cncc1Cl)c1ccc(OC(F)F)c(OCC2CC2)c1` [Roflumilast], for which the “PDE4 inhibitor-mediated side effects observed in the Roflumilast group” value with male Wistar rats [1] (setting [6]), in the data set on male Wistar rats [3] (setting [6]) and with male Wistar rats [4] (setting [6]) was “loss of body weight; also recorded: loss of spleen weight; also recorded: neutrophilia; also recorded: mesenteric vasculitis” in each case. In addition, the “death of animals in the roflumilast group” value with male Wistar rats [2] (10 mg/kg roflumilast p.o. daily, six rats per group) is “died between day 4 and day 5”.

As to `CCOc1c2c(c(OCC)c3ncccc13)CN(c1ccc(CS(=O)(=O)NC(=O)Cc3ccccc3OC)cc1C)C2=O` [MF-498, N-{[4-(5,9-diethoxy-6-oxo-6,8-dihydro-7H-pyrrolo(3,4-g)quinolin-7-yl)-3-methylbenzyl)sulphonyl}-2-(2-methoxyphenyl)acetamide], the “parameters measured after administration on its own (body weight, spleen weight, neutrophils, mesenteric vasculitis)” value (shortened to “parameters measured after administration”) with male Wistar rats [5] is “very similar to the control group”. Further, in the data set on male Wistar rats [4] (setting [7]), the “effect of co-administration on roflumilast-mediated loss of body weight (FIG. 9)” value was “substantially reduced”; the “effect of co-administration on roflumilast-mediated loss of spleen weight (FIG. 10)” value is on record as “substantially reduced”; the “effect of co-administration on roflumilast-mediated mesenteric vasculitis (monocyte/polymorphonuclear perivascular infiltration, FIG. 12)” value is recorded as “substantially reduced”; the “effect of co-administration on roflumilast-mediated neutrophilia (FIG. 11)” value is “substantially reduced”. For the same molecule, the “differences in the weight of the spleen between the Roflumilast group and the Roflumilast+MF-498 group (statistics)” value in the data set with male Wistar rats [4] (20 mg/kg MF-498 and 10 mg/kg Roflumilast p.o., one animal of the Roflumilast group had an unusually small loss of spleen weight) is “do not achieve statistical significance”.

For `O=C(O)Cc1ccccc1Nc1c(Cl)cccc1Cl` [diclofenac], in the data set on male Wistar rats [2] (setting [8]), the “effect of co-administration on roflumilast-mediated loss of body weight (FIG. 1)” value is on record as “substantially reduced or prevented”; the “effect of co-administration on roflumilast-mediated loss of spleen weight (FIG. 2)” value is “substantially reduced or prevented”; the “effect of co-administration on roflumilast-mediated mesenteric vasculitis (monocyte/polymorphonuclear infiltration into the mesentery, FIG. 4)” value is on record as “substantially reduced or prevented”; the “effect of co-administration on roflumilast-mediated neutrophilia (FIG. 3)” value is on record as “substantially reduced or prevented”. The “parameters measured after administration” value in the data set on male Wistar rats [2] (1 mg/kg diclofenac p.o. at 0800 and 1700 hours, four days, no roflumilast) was “very similar to the control groups”.

With `CC(C)Oc1ccc2c(=O)c3cc(C(=O)O)ccc3oc2c1` [AH6809, 6-isopropoxy-9-oxoxanthene-2-carboxylic acid], the “parameters measured after administration” value with male Wistar rats [1] (10 mg/kg AH-6809 p.o. at 1300 hours, four days, no roflumilast) is recorded as “very similar to the control group”. Moreover, in the data set with male Wistar rats [1] (setting [9]), the “influence of co-administration on roflumilast-mediated loss of body weight (FIG. 13)” value is given as “no indications that the EP2 preferential receptor antagonist AH-809 had any influence”; the “influence of co-administration on roflumilast-mediated loss of spleen weight (FIG. 14)” value was “no indications that the EP2 preferential receptor antagonist AH-809 had any influence”; the “influence of co-administration on roflumilast-mediated mesenteric vasculitis (monocyte/polymorphonuclear perivascular infiltration, FIG. 16)” value is listed as “no indications that the EP2 preferential receptor antagonist AH-809 had any influence”; the “influence of co-administration on roflumilast-mediated neutrophilia (FIG. 15)” value is listed as “no indications that the EP2 preferential receptor antagonist AH-809 had any influence”.

Consider `Cc1ccc(Nc2c(F)cccc2Cl)c(CC(=O)O)c1` [Lumiracoxib], for which, in the data set with male Wistar rats [3] (setting [10]), the “effect of co-administration on roflumilast-mediated loss of body weight (FIG. 5)” value is “substantially reduced or prevented”; the “effect of co-administration on roflumilast-mediated loss of spleen weight (FIG. 6)” value is reported as “substantially reduced or prevented”; the “effect of co-administration on roflumilast-mediated mesenteric vasculitis (monocyte/polymorphonuclear perivascular infiltration, FIG. 8)” value is on record as “substantially reduced or prevented”; the “effect of co-administration on roflumilast-mediated neutrophilia (FIG. 7)” value was “substantially reduced or prevented”. Besides, the “parameters measured after administration” value in the data set on male Wistar rats [3] (2 mg/kg p.o. at 0800 and 1700 hours, four days, no roflumilast) is given as “very similar to the control groups”.
